From patent publication US20250032485A1, “APPLICATION OF IMIDAZO [1,2-A] PYRAZINE COMPOUNDS OR THEIR PHARMACEUTICALLY ACCEPTABLE SALTS IN THE PREPARATION OF ANTI-CORONAVIRUS DRUGS” (GUANGZHOU MEDICAL UNIVERSITY, priority 2023, published 2025) come the findings set out here.

This experiment concerns the target PLpro of SARS-CoV-2 (Severe acute respiratory syndrome coronavirus 2, UniProt P0DTD1). The experiment can be described thus: Enzyme activity test in vitro: inhibition of PLpro at fixed concentration 50 μM (RLRGG-AMC substrate). In kind it is biochemical. Particulars: read-out: Inhibition rate at 50 μM (%).
Usually inhibition stands for the drop in the measured response relative to a control, in per cent. For `O=C(O)c1ccc(Nc2c(-c3cccc(Br)c3)nc3cnccn23)cc1` [P18234, 4-[[2-(3-bromophenyl)imidazo[1,2-a]pyrazin-3-yl]amino] benzoic acid], the inhibition at 50 µM stood at 20.5%.

Take `COc1ccc(-c2nc3cnccn3c2Nc2ccc3c(c2)OCO3)cc1OC` [P19444, N-(1,3-benzodioxol-5-yl)-2-(3,4-dimethoxy-phenyl)imidazo [1,2-a]pyrazin-3-amine]: the inhibition at 50 µM came out at 42.2%.

Consider `CN(C)c1ccc(-c2nc3cnccn3c2Nc2cccc(C(=O)O)c2)cc1` [P19447, 3-[[2-[4-(dimethyl-amino)phenyl]imidazo [1,2-a]pyrazin-3-yl]amino]benzoic acid], for which the inhibition at 50 µM came out at 42.1%.

Take `O=C(O)c1cccc(Nc2c(-c3cccc(Cl)c3)nc3cnccn23)c1` [P19457, 3-[[2-(3-chlorophenyl)imidazo[1,2-a]pyrazin-3-yl]amino] benzoic acid]: the inhibition at 50 µM is 39.7%.

As to `COc1ccc(-c2nc3cnccn3c2Nc2ccccc2C)cc1OC` [P19463, 2-(3,4-dimethoxy-phenyl)-N-(2-methylphenyl)imidazo[1,2-a]pyrazin-3-amine], the inhibition at 50 µM is 40.7%.

As for `CNC(=O)c1ccc(Nc2c(-c3ccc(OC)c(OC)c3)nc3cnccn23)cc1` [P19464, 4-[[2-(3,4-dimethoxy-phenyl)imidazo[1,2-a]pyrazin-3-yl]amino]-N-methyl-benzamide], the inhibition at 50 µM turned out to be 42.2%.

As to `Cc1ccc(-c2nc3cnccn3c2Nc2ccc(C(=O)O)cc2)cc1` [P19465, 4-[[2-(4-methyl-phenyl)imidazo[1,2-a]pyrazin-3-yl]amino] benzoic acid], the inhibition at 50 µM stood at 15.9%.

For the compound `COC(=O)c1cccc(Nc2c(-c3cc(Br)ccc3O)nc3cnccn23)c1` [P19466, methyl 3-[[2-(5-bromo-2-hydroxyphenyl)imidazo [1,2-a]pyrazin-3-yl]amino]benzoate], the inhibition at 50 µM was 31.9%.

As to `O=C(O)c1cccc(Nc2c(-c3cccc(Br)c3)nc3cnccn23)c1` [P19467, 3-[[2-(3-bromophenyl)imidazo[1,2-a]pyrazin-3-yl]amino] benzoic acid], the inhibition at 50 µM was determined as 27.3%.

With `CNC(=O)c1ccc(Nc2c(-c3ccc(OC)cc3)nc3cnccn23)cc1` [P19472, 4-[[2-(4-methoxy-phenyl)imidazo[1,2-a]pyrazin-3-yl]amino]-N-methylbenzamide], the inhibition at 50 µM was found to be 28.1%.

With `COc1ccc(-c2nc3cnccn3c2Nc2ccc(C(C)C)cc2)cc1OC` [P19473, 2-(3,4-dimethoxy-phenyl)-N-(4-propan-2-ylphenyl)imidazo [1,2-a]pyrazin-3-amine], the inhibition at 50 µM is 37.5%.

Consider `CN(C)c1ccc(-c2nc3cnccn3c2Nc2ccc(C(=O)O)cc2)cc1` [P19475, 4-[[2-[4-(dimethyl-amino)phenyl]imidazo [1,2-a]pyrazin-3-yl]amino]benzoic acid], for which the inhibition at 50 µM worked out at 35.1%.

In the case of `COC(=O)c1cccc(Nc2c(-c3ccccc3)nc3cnccn23)c1` [P19476, methyl 3-[(2-phenylimidazo [1,2-a]pyrazin-3-yl)amino]benzoate], the inhibition at 50 µM was determined as 34%.

For `O=C(O)c1cccc(Nc2c(-c3ccc(F)cc3)nc3cnccn23)c1` [P19477, 3-[[2-(4-fluorophenyl)imidazo[1,2-a]pyrazin-3-yl]amino] benzoic acid], the inhibition at 50 µM amounted to 5.91%.

`CNC(=O)c1ccc(Nc2c(-c3ccc(C)cc3)nc3cnccn23)cc1` [P19482, N-methyl-4-[[2-(4-methylphenyl)imidazo [1,2-a]pyrazin-3-yl]amino]benzamide]: the inhibition at 50 µM came to 34.1%.

Regarding `COc1ccc(-c2nc3cnccn3c2Nc2c(C)cccc2C)cc1OC` [P19483, 2-(3,4-dimethoxy-phenyl)-N-(2,6-di-methylphenyl)imidazo [1,2-a]pyrazin-3-amine], the inhibition at 50 µM stood at 37.8%.

On to `COC(=O)c1ccc(-c2nc3cnccn3c2Nc2ccc(Cl)cc2)cc1` [P19484, methyl 4-[3-(4-chloroanilino)imidazo[1,2-a]pyrazin-2-yl]benzoate], for which the inhibition at 50 µM was determined as 42.4%.

Take `COC(=O)c1cccc(Nc2c(-c3ccc(OC)cc3)nc3cnccn23)c1` [P19485, methyl 3-[[2-(4-methoxy-phenyl)imidazo[1,2-a]pyrazin-3-yl]amino] benzoate]: the inhibition at 50 µM was 36%.

As for `COc1ccc(-c2nc3cnccn3c2Nc2cccc(C(=O)O)c2)cc1` [P19486, 3-[[2-(4-methoxy-phenyl)imidazo[1,2-a]pyrazin-3-yl]amino] benzoic acid], the inhibition at 50 µM was 40.1%.

Regarding `O=C(O)c1cccc(Nc2c(-c3cc(Br)ccc3O)nc3cnccn23)c1` [P19487, 3-[[2-(5-bromo-2-hydroxyphenyl)imidazo [1,2-a]pyrazin-3-yl]amino]benzoic acid], the inhibition at 50 µM stood at 27.3%.

`NC(=O)c1cccc(Nc2c(-c3ccc(Cl)cc3)nc3cnccn23)c1` [P19492, 3-[[2-(4-chlorophenyl)imidazo[1,2-a]pyrazin-3-yl]amino] benzamide]: the inhibition at 50 µM stood at 35.4%.

Regarding `COc1ccc(Nc2c(-c3ccc(OC)c(OC)c3)nc3cnccn23)cc1` [P19493, 2-(3,4-dimethoxy-phenyl)-N-(4-methoxy-phenyl)imidazo[1,2-a]pyrazin-3-amine], the inhibition at 50 µM amounted to 32.3%.

On to `COC(=O)c1ccc(-c2nc3cnccn3c2Nc2cccc(C(=O)OC)c2)cc1` [P19494, methyl 3-[[2-(4-methoxy-carbonylphenyl)imidazo [1,2-a]pyrazin-3-yl]amino]benzoate], for which the inhibition at 50 µM was 25.4%.

For `COC(=O)c1cccc(Nc2c(-c3ccc(SC)cc3)nc3cnccn23)c1` [P19495, methyl 3-[[2-(4-methyl-sulfanylphenyl)imidazo [1,2-a]pyrazin-3-yl]amino]benzoate], the inhibition at 50 µM is 41.7%.

Regarding `O=C(O)c1cccc(Nc2c(-c3ccc(O)cc3)nc3cnccn23)c1` [P19496, 3-[[2-(4-hydroxy-phenyl)imidazo[1,2-a]pyrazin-3-yl]amino] benzoic acid], the inhibition at 50 µM stood at 40.5%.

As for `O=C(O)c1cccc(Nc2c(-c3ccccc3)nc3cnccn23)c1` [P19497, 3-[(2-phenylimidazo [1,2-a]pyrazin-3-yl)amino]benzoic acid], the inhibition at 50 µM worked out at 31.2%.

In the case of `CSc1ccc(-c2nc3cnccn3c2Nc2cccc(C(N)=O)c2)cc1` [P19502, 3-[[2-(4-methyl-sulfanylphenyl)imidazo [1,2-a]pyrazin-3-yl]amino]benzamide], the inhibition at 50 µM is 39.1%.

`COc1ccc(-c2nc3cnccn3c2Nc2ccc(Cl)cc2)cc1OC` [P19503, N-(4-chlorophenyl)-2-(3,4-dimethoxy-phenyl)imidazo[1,2-a]pyrazin-3-amine]: the inhibition at 50 µM worked out at 43.6%.

Regarding `CCOC(=O)c1ccc(Nc2c(-c3ccc(O)cc3)nc3cnccn23)cc1` [P19504, ethyl 4-[[2-(4-hydroxy-phenyl)imidazo[1,2-a]pyrazin-3-yl]amino] benzoate], the inhibition at 50 µM amounted to 32.6%.

In the case of `COC(=O)c1cccc(Nc2c(-c3ccc(O)c(OC)c3)nc3cnccn23)c1` [P19505, methyl 3-[[2-(4-hydroxy-3-methoxyphenyl)imidazo [1,2-a]pyrazin-3-yl]amino]benzoate], the inhibition at 50 µM is 44.7%.

Regarding `COc1cc(-c2nc3cnccn3c2Nc2cccc(C(=O)O)c2)ccc1O` [P19506, 3-[[2-(4-hydroxy-3-methoxyphenyl)imidazo [1,2-a]pyrazin-3-yl]amino]benzoic acid], the inhibition at 50 µM came out at 34%.

Take `CNC(=O)c1cccc(Nc2c(-c3ccc(Cl)cc3)nc3cnccn23)c1` [P19512, 3-[[2-(4-chlorophenyl)imidazo[1,2-a]pyrazin-3-yl]amino]-N-methylbenzamide]: the inhibition at 50 µM turned out to be 41.6%.

On to `CCc1cccc(C)c1Nc1c(-c2ccc(OC)c(OC)c2)nc2cnccn12` [P19513, 2-(3,4-dimethoxy-phenyl)-N-(2-ethyl-6-methylphenyl)imidazo [1,2-a]pyrazin-3-amine], for which the inhibition at 50 µM turned out to be 38.8%.

Take `COc1ccc(-c2nc3cnccn3c2Nc2ccc(C(=O)O)cc2)cc1` [P19514, 4-[[2-(4-methoxy-phenyl)imidazo[1,2-a]pyrazin-3-yl]amino] benzoic acid]: the inhibition at 50 µM turned out to be 36%.

With `COC(=O)c1cccc(Nc2c(-c3ccc(C)cc3)nc3cnccn23)c1` [P19515, methyl 3-[[2-(4-methyl-phenyl)imidazo[1,2-a]pyrazin-3-yl]amino] benzoate], the inhibition at 50 µM stood at 37.1%.

For `O=C(O)c1cccc(Nc2c(-c3ccc(Cl)cc3)nc3cnccn23)c1` [P19516, 3-[[2-(4-chlorophenyl)imidazo[1,2-a]pyrazin-3-yl]amino] benzoic acid], the inhibition at 50 µM was determined as 32.8%.

Consider `CCNC(=O)c1ccc(Nc2c(-c3ccc(Cl)cc3)nc3cnccn23)cc1` [P22402, 4-[[2-(4-chlorophenyl)imidazo[1,2-a]pyrazin-3-yl]amino]-N-ethylbenzamide], for which the inhibition at 50 µM was found to be 31.3%.

Take `COc1ccc(-c2nc3cnccn3c2Nc2ccc(C(=O)NCCN3CCOCC3)cc2)cc1` [P22403, 4-[[2-(4-methoxy-phenyl)imidazo[1,2-a]pyrazin-3-yl]amino]-N-(2-morpholin-4-ylethyl)benzamide]: the inhibition at 50 µM turned out to be 31.7%.

Turning to `O=C(NC1CCCCC1)c1ccc(Nc2c(-c3ccccc3)nc3cnccn23)cc1` [P22404, N-cyclohexyl-4-[(2-phenylimidazo[1,2-a]pyrazin-3-yl)amino] benzamide], the inhibition at 50 µM is 26.1%.

For `COc1ccc(-c2nc3cnccn3c2Nc2ccc(C(=O)N3CCOCC3)cc2)cc1` [P22405, [4-[[2-(4-methoxy-phenyl)imidazo[1,2-a]pyrazin-3-yl]amino]phenyl]-morpholin-4-ylmethanone], the inhibition at 50 µM turned out to be 36.5%.

For the compound `CN(C)c1ccc(-c2nc3cnccn3c2Nc2cccc(C(N)=O)c2)cc1` [P22406, 3-[[2-[4-(dimethyl-amino)phenyl]imidazo [1,2-a]pyrazin-3-yl]amino]benzamide], the inhibition at 50 µM came out at 37.2%.

Turning to `CC(C)NC(=O)c1cccc(Nc2c(-c3ccc(Cl)cc3)nc3cnccn23)c1` [P22407, 3-[[2-(4-chlorophenyl)imidazo[1,2-a]pyrazin-3-yl]amino]-N-propan-2-ylbenzamide], the inhibition at 50 µM was found to be 32.6%.
